Assay [1] concerns the target Amyloid-beta precursor protein (Homo sapiens) (UniProt P05067). The assay is described as follows: Inhibition of pH-click Amyloid beta (1 to 42) (unknown origin) aggregation after 24 hrs by Thioflavin-T fluorescence assay. The following applies: concentration not given here. Also noted: concentration or dose not given beside the values.
Assay [2] has the same target. Nature of the assay: Inhibition of pH-click Amyloid beta (1 to 42) (unknown origin) aggregation after 48 hrs by Thioflavin-T fluorescence assay. Also noted: concentration or dose not given beside the values. The settings on record: concentration not given here.
The target is the same in assay [3]. The assay is described as follows: Inhibition of authentic Amyloid beta (1 to 42) (unknown origin) aggregation 6 to 48 hrs by Thioflavin-T fluorescence assay.
Assay [4] shares this target. The assay is described as follows: Inhibition of pH-click Amyloid beta (1 to 42) (unknown origin) aggregation 6 to 48 hrs by Thioflavin-T fluorescence assay.

The source made the active and inactive calls. The rule behind the calls is not given here. *1 amine or outer side, *2 acyl side, *3 side chain or, on linkers, in order; H or OH if unused. Where a SMILES comes first, the peptide text is derived from it. [ ]: non-standard residue; d: D form. X1 = O=C(CCc1cccc2c1oc1c(CCN[*:1])cccc12)[*:2]; PEG8 = NCCOCCOCCOCCOCCOCCOCCOCCOCCC(=O)O; Met(O) = CS(=O)CC[C@H](N)C(=O)O

Chain of Amyloid-beta precursor protein (Homo sapiens) (P05067 whole entry): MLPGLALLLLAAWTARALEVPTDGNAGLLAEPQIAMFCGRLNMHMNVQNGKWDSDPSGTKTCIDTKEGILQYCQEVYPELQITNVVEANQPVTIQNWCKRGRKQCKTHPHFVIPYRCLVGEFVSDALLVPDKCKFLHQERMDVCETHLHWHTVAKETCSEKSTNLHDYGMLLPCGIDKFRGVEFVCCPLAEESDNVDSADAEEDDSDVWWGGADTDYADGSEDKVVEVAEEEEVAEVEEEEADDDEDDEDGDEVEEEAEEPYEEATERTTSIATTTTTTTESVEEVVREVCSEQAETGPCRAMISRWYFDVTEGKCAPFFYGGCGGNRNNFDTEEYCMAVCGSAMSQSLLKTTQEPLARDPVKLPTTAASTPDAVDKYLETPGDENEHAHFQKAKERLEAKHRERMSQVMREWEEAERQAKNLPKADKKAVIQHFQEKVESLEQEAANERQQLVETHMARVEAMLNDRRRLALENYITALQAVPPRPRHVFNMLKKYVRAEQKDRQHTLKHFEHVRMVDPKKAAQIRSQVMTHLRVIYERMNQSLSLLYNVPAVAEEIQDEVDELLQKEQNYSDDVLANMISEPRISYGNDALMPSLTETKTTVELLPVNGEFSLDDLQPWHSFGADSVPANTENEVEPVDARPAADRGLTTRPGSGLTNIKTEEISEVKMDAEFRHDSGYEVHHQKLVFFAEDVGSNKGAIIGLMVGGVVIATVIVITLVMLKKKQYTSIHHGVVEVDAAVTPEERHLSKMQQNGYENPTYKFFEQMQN

Take `CC[C@H](C)[C@H](NC(=O)[C@H](C)NC(=O)CCc1cccc2c1oc1c(CCNC(=O)[C@H](CO)NC(=O)CNC(=O)[C@@H](NC(=O)[C@@H](N)CC(=O)O)C(C)C)cccc12)C(=O)N[C@H](C(=O)NCC(=O)NCCOCCOCCOCCOCCOCCOCCOCCOCCC(=O)O)[C@@H](C)CC` (H-DVGS[X1]AIIG[PEG8]-OH): the inhibition in assay [1] and in assay [2] was under 5% each time.

Take `CC[C@H](C)[C@H](NC(=O)[C@H](C)NC(=O)CNC(=O)CCc1cccc2c1oc1c(CCNC(=O)CNC(=O)[C@@H](NC(=O)[C@H](CC(=O)O)NC(=O)[C@@H](N)CCC(=O)O)C(C)C)cccc12)C(=O)N[C@H](C(=O)NCCOCCOCCOCCOCCOCCOCCOCCOCCC(=O)O)[C@@H](C)CC` (H-EDVG[X1]GAII[PEG8]-OH): the inhibition (commonly the relative decrease from the control value, in per cent) in assay [1] amounted to 16%; in assay [2], 20%.

As for `CC[C@H](C)[C@H](NC(=O)CCc1cccc2c1oc1c(CCNC(=O)[C@H](CCCCN)NC(=O)[C@H](CC(N)=O)NC(=O)[C@H](CO)NC(=O)CN)cccc12)C(=O)NCC(=O)N[C@@H](CC(C)C)C(=O)N[C@@H](CC[S+](C)[O-])C(=O)NCCOCCOCCOCCOCCOCCOCCOCCOCCC(=O)O` (some centres undefined) (H-GSNK[X1]IGL[Met(O)][PEG8]-OH), the inhibition in assay [1] is 12%; in assay [2], under 5%.

In the case of `CC(C)C[C@H](NC(=O)CNC(=O)CCc1cccc2c1oc1c(CCNC(=O)CNC(=O)[C@H](CCCCN)NC(=O)[C@H](CC(N)=O)NC(=O)[C@@H](N)CO)cccc12)C(=O)N[C@@H](CC[S+](C)[O-])C(=O)N[C@H](C(=O)NCCOCCOCCOCCOCCOCCOCCOCCOCCC(=O)O)C(C)C` (some centres undefined) (H-SNKG[X1]GL[Met(O)]V[PEG8]-OH), the figures for the inhibition in assay [1] and in assay [2] were 7% and under 5%, respectively.

As to `CC[C@H](C)[C@H](NC(=O)CCc1cccc2c1oc1c(CCNC(=O)[C@H](CC(N)=O)NC(=O)[C@H](CO)NC(=O)CNC(=O)[C@@H](N)C(C)C)cccc12)C(=O)N[C@H](C(=O)NCC(=O)N[C@@H](CC(C)C)C(=O)NCCOCCOCCOCCOCCOCCOCCOCCOCCC(=O)O)[C@@H](C)CC` (H-VGSN[X1]IIGL[PEG8]-OH), the figures for the inhibition in assay [1] and in assay [2] were 49% and 39%, respectively.

Turning to `CC[C@H](C)[C@H](NC(=O)[C@H](C)NC(=O)CCc1cccc2c1oc1c(CCNC(=O)[C@H](CO)NC(=O)CNC(=O)[C@@H](NC(=O)[C@H](CC(=O)O)NC(=O)CCOCCOCCOCCOCCOCCOCCOCCOCCN)C(C)C)cccc12)C(=O)N[C@H](C(=O)NCC(=O)O)[C@@H](C)CC` (H-[PEG8]DVGS[X1]AIIG-OH), the inhibition in assay [1] is 10%; in assay [2], under 5%.

`CC[C@H](C)[C@H](NC(=O)[C@@H](NC(=O)[C@H](C)NC(=O)CNC(=O)CCc1cccc2c1oc1c(CCNC(=O)CNC(=O)[C@@H](NC(=O)[C@H](CC(=O)O)NC(=O)[C@H](CCC(=O)O)NC(=O)CCOCCOCCOCCOCCOCCOCCOCCOCCN)C(C)C)cccc12)[C@@H](C)CC)C(=O)O` (H-[PEG8]EDVG[X1]GAII-OH): the inhibition in assay [1] is 13%; in assay [2], under 5%.

Regarding `CC[C@H](C)[C@H](NC(=O)CCc1cccc2c1oc1c(CCNC(=O)[C@H](CCCCN)NC(=O)[C@H](CC(N)=O)NC(=O)[C@H](CO)NC(=O)CNC(=O)CCOCCOCCOCCOCCOCCOCCOCCOCCN)cccc12)C(=O)NCC(=O)N[C@@H](CC(C)C)C(=O)N[C@@H](CC[S+](C)[O-])C(=O)O` (some centres undefined) (H-[PEG8]GSNK[X1]IGL[Met(O)]-OH), the inhibition in assay [1] is 9%; in assay [2], under 5%.

With `CC(C)C[C@H](NC(=O)CNC(=O)CCc1cccc2c1oc1c(CCNC(=O)CNC(=O)[C@H](CCCCN)NC(=O)[C@H](CC(N)=O)NC(=O)[C@H](CO)NC(=O)CCOCCOCCOCCOCCOCCOCCOCCOCCN)cccc12)C(=O)N[C@@H](CC[S+](C)[O-])C(=O)N[C@H](C(=O)O)C(C)C` (some centres undefined) (H-[PEG8]SNKG[X1]GL[Met(O)]V-OH), the values for the inhibition in assay [1] and in assay [2] were 13% and under 5%, respectively.

Take `CC[C@H](C)[C@H](NC(=O)CCc1cccc2c1oc1c(CCNC(=O)[C@H](CC(N)=O)NC(=O)[C@H](CO)NC(=O)CNC(=O)[C@@H](NC(=O)CCOCCOCCOCCOCCOCCOCCOCCOCCN)C(C)C)cccc12)C(=O)N[C@H](C(=O)NCC(=O)N[C@@H](CC(C)C)C(=O)O)[C@@H](C)CC` (H-[PEG8]VGSN[X1]IIGL-OH): the inhibition in assay [1] and in assay [2] was 56% in each case.

For the compound `CC(C)C[C@@H](NC(=O)[C@H](N)CCCCN)C(=O)N[C@@H](C(=O)N[C@H](Cc1ccccc1)C(=O)N[C@H](Cc1ccccc1)C(=O)N[C@H](C)C(=O)O)C(C)C` (H-[dK][dL][dV][dF][dF][dA]-OH), the inhibition result in assay [3] and in assay [4] was “Active” each time.

For the compound H-KLVFFA-OH, the inhibition result in assay [3] and in assay [4] was “Active” throughout.

(Values after ChEMBL document CHEMBL3396986, “Novel β-amyloid aggregation inhibitors possessing a turn mimic” (Bioorg Med Chem Lett, 2015).)
